Converted amounts (≈) assume the structure as drawn.
Experiments:
Type in all cases: functional
OVCAR-3 = assay: Anticancer activity against Homo sapiens (human) OVCAR3 cells after 48 hr by SRB assay; conditions: OVCAR-3, 48 h
OVCAR-4 = assay: Anticancer activity against Homo sapiens (human) OVCAR4 cells after 48 hr by SRB assay; conditions: OVCAR-4, 48 h
SK-MEL-2 = assay: Anticancer activity against Homo sapiens (human) SK-MEL-2 cells after 48 hr by SRB assay; conditions: SK-MEL-2, 48 h
M14 [1] = assay: Anticancer activity against Homo sapiens (human) M14 cells after 48 hr by SRB assay; conditions: M14, 48 h
SF-268 = assay: Anticancer activity against Homo sapiens (human) SF268 cells after 48 hr by SRB assay; conditions: SF-268, 48 h
786-0 = assay: Growth inhibition of Homo sapiens (human) 786-0 cells at 10 uM after 48 hr by SRB assay; conditions: 786-0, 48 h, read-out: GI
CCRF-CEM [2] = assay: Growth inhibition of Homo sapiens (human) CCRF-CEM cells at 10 uM after 48 hr by SRB assay; conditions: read-out: GI
T47D = assay: Growth inhibition of Homo sapiens (human) T47D cells at 10 uM after 48 hr by SRB assay; conditions: read-out: GI
Hs-578T = assay: Growth inhibition of Homo sapiens (human) Hs 578T cells at 10 uM after 48 hr by SRB assay; conditions: read-out: GI
Escherichia coli = assay: Antimicrobial activity against Escherichia coli ATCC8739 assessed as diameter of growth inhibition zone at 1 mg/ml after 24 hr by agar cup diffusion method; conditions: ATCC8739, 24 h, read-out: IZ
MDA-MB-435 = assay: Anticancer activity against Homo sapiens (human) MDA-MB-435 cells after 48 hr by SRB assay; conditions: MDA-MB-435, 48 h
BT-549 = assay: Anticancer activity against Homo sapiens (human) BT549 cells after 48 hr by SRB assay; conditions: BT-549, 48 h
DU-145 = assay: Anticancer activity against Homo sapiens (human) DU145 cells after 48 hr by SRB assay; conditions: DU-145, 48 h
MCF7 = assay: Anticancer activity against Homo sapiens (human) MCF7 cells after 48 hr by SRB assay; conditions: MCF7, 48 h
PC-3 = assay: Anticancer activity against Homo sapiens (human) PC3 cells after 48 hr by SRB assay; conditions: PC-3, 48 h
UO-31 = assay: Anticancer activity against Homo sapiens (human) UO31 cells after 48 hr by SRB assay; conditions: UO-31, 48 h
A498 = assay: Anticancer activity against Homo sapiens (human) A498 cells after 48 hr by SRB assay; conditions: A498, 48 h
NCI-H322M = assay: Growth inhibition of Homo sapiens (human) NCI-H322M cells at 10 uM after 48 hr by SRB assay; conditions: read-out: GI
NCI-H23 = assay: Growth inhibition of Homo sapiens (human) NCI-H23 cells at 10 uM after 48 hr by SRB assay; conditions: NCI-H23, 48 h, read-out: GI
HOP-92 [3] = assay: Growth inhibition of Homo sapiens (human) HOP92 cells at 10 uM after 48 hr by SRB assay; conditions: HOP-92, 48 h, read-out: GI
EKVX = assay: Growth inhibition of Homo sapiens (human) EKVX cells at 10 uM after 48 hr by SRB assay; conditions: read-out: GI
HOP-62 = assay: Growth inhibition of Homo sapiens (human) HOP62 cells at 10 uM after 48 hr by SRB assay; conditions: HOP-62, 48 h, read-out: GI
Pseudomonas aeruginosa = assay: Antimicrobial activity against Pseudomonas aeruginosa ATCC9027 assessed as growth inhibition after 48 hr by two-fold serial dilution method; conditions: ATCC9027, 48 h
HCT-15 = assay: Anticancer activity against Homo sapiens (human) HCT15 cells after 48 hr by SRB assay; conditions: HCT-15, 48 h
COLO 205 = assay: Anticancer activity against Homo sapiens (human) COLO205 cells after 48 hr by SRB assay; conditions: COLO 205, 48 h
HOP-92 [4] = assay: Anticancer activity against Homo sapiens (human) HOP92 cells after 48 hr by SRB assay; conditions: HOP-92, 48 h
A549 = assay: Anticancer activity against Homo sapiens (human) A549/ATCC cells after 48 hr by SRB assay; conditions: A549, 48 h
RPMI-8226 = assay: Anticancer activity against Homo sapiens (human) RPMI8226 cells after 48 hr by SRB assay; conditions: RPMI-8226, 48 h
K562 = assay: Anticancer activity against Homo sapiens (human) K562 cells after 48 hr by SRB assay; conditions: K562, 48 h
CCRF-CEM [5] = assay: Anticancer activity against Homo sapiens (human) CCRF-CEM cells after 48 hr by SRB assay
SF-539 = assay: Growth inhibition of Homo sapiens (human) SF539 cells at 10 uM after 48 hr by SRB assay; conditions: SF-539, 48 h, read-out: GI
SK-MEL-28 = assay: Growth inhibition of Homo sapiens (human) SK-MEL-28 cells at 10 uM after 48 hr by SRB assay; conditions: SK-MEL-28, 48 h, read-out: GI
M14 [6] = assay: Growth inhibition of Homo sapiens (human) M14 cells at 10 uM after 48 hr by SRB assay; conditions: M14, 48 h, read-out: GI
TK-10 = assay: Growth inhibition of Homo sapiens (human) TK10 cells at 10 uM after 48 hr by SRB assay; conditions: TK-10, 48 h, read-out: GI
[7] = read-out: LC50 (the source's name)

SMILES: Cc1c(C(N)=O)sc2nc(C)n(/N=c3\scc(-c4ccccc4)n3Cc3ccccc3)c(=O)c12
- GI50 (OVCAR-3): 2.28 µM
- TGI (OVCAR-3): 8.58 µM
- CC50 (OVCAR-3; [7]): > 100 µM
- GI50 (OVCAR-4): 2.5 µM
- TGI (OVCAR-4): > 100 µM
- CC50 (OVCAR-4; [7]): > 100 µM
- GI50 (SK-MEL-2): 3.89 µM
- TGI (SK-MEL-2): 86.6 µM
- CC50 (SK-MEL-2; [7]): > 100 µM
- GI50 (M14 [1]): 3.88 µM
- TGI (M14 [1]): 84.5 µM
- CC50 (M14 [1]; [7]): > 100 µM
- GI50 (SF-268): 4 µM
- TGI (SF-268): > 100 µM
- CC50 (SF-268; [7]): > 100 µM
- inhibition of growth at 10 µM (786-0): 49.3%
- inhibition of growth at 10 µM (CCRF-CEM [2]): 112%
- inhibition of growth at 10 µM (T47D): 65.3%
- inhibition of growth at 10 µM (Hs-578T): 115%
- zone of inhibition at 1000 µg/mL (Escherichia coli): 15 mm
- GI50 (MDA-MB-435): 2.89 µM
- TGI (MDA-MB-435): 12.5 µM
- CC50 (MDA-MB-435; [7]): > 100 µM
- GI50 (BT-549): 2.41 µM
- TGI (BT-549): 8.89 µM
- CC50 (BT-549; [7]): > 100 µM
- GI50 (DU-145): 3.9 µM
- TGI (DU-145): > 100 µM
- CC50 (DU-145; [7]): > 100 µM
- GI50 (MCF7): 2.92 µM
- TGI (MCF7): > 100 µM
- CC50 (MCF7; [7]): > 100 µM
- GI50 (PC-3): 2.15 µM
- TGI (PC-3): 8.31 µM
- CC50 (PC-3; [7]): > 100 µM
- GI50 (UO-31): 1.66 µM
- TGI (UO-31): 7 µM
- CC50 (UO-31; [7]): > 100 µM
- GI50 (A498): 2.53 µM
- TGI (A498): 8.97 µM
- CC50 (A498; [7]): > 100 µM
- inhibition of growth at 10 µM (NCI-H322M): 64.6%
- inhibition of growth at 10 µM (NCI-H23): 79.5%
- inhibition of growth at 10 µM (HOP-92 [3]): 119%
- inhibition of growth at 10 µM (EKVX): 107%
- inhibition of growth at 10 µM (HOP-62): 75.8%
- MIC (Pseudomonas aeruginosa): 125 µg/mL (≈ 256 µM)
- GI50 (HCT-15): 2.64 µM
- TGI (HCT-15): > 100 µM
- CC50 (HCT-15; [7]): > 100 µM
- GI50 (COLO 205): 2.39 µM
- TGI (COLO 205): 7.32 µM
- CC50 (COLO 205; [7]): > 100 µM
- GI50 (HOP-92 [4]): 1.34 µM
- TGI (HOP-92 [4]): 5.33 µM
- CC50 (HOP-92 [4]; [7]): > 100 µM
- GI50 (A549): 3.79 µM
- TGI (A549): > 100 µM
- CC50 (A549; [7]): > 100 µM
- GI50 (RPMI-8226): 13.9 µM
- TGI (RPMI-8226): > 100 µM
- CC50 (RPMI-8226; [7]): > 100 µM
- GI50 (K562): 8.89 µM
- TGI (K562): > 100 µM
- CC50 (K562; [7]): > 100 µM
- GI50 (CCRF-CEM [5]): 34.2 µM
- TGI (CCRF-CEM [5]): > 100 µM
- CC50 (CCRF-CEM [5]; [7]): > 100 µM
- inhibition of growth at 10 µM (SF-539): 77.8%
- inhibition of growth at 10 µM (SK-MEL-28): 51.8%
- inhibition of growth at 10 µM (M14 [6]): 63.6%
- inhibition of growth at 10 µM (TK-10): 47.2%
